According to patent US20240270720A1, “INDAZOLE YL BENZIMIDAZOLE DERIVATIVE OR PHARMACEUTICALLY ACCEPTABLE SALT THEREOF, AND USE THEREOF” (INDUSTRY-UNIVERSITY COOPERATION FOUNDATION HANYANG …, priority 2021, published 2024):
pIC50: −log10 of the molar value.

What was measured:
PLK1 = target: T1, PLK1 (Homo sapiens, UniProt P53350); experiment: Protein kinase profiling (Kinase HotSpot); format: biochemical; details: single dose 1 μM
T1 construct: purchased Reaction Biology Corp. (Kinase HotSpot service)
Procedure: (§1) The analysis protocol was as follows: In a final reaction volume of 25 μL, a peptide substrate, [[sequence]], 5 μM, ATP 10 μM, and FLT3(h) (5 to 10 mU) were incubated with 25 mM Tris pH 7.5, 0.02 mM EGTA, 0.66 mg/mL myelin basic protein, 10 mM Mg acetate and [γ-33P-ATP] (a concentration of approximately 500 cpm/pmol was required for specific activity). The reaction was initiated by adding the Mg-ATP mixture. After incubation at room temperature for 40 minutes, the reaction was stopped by adding 5 μL of a 3% phosphoric acid solution. Thereafter, 10 μL of the reactant was spotted on a P30 filter mat and washed three times for 5 minutes in 75 mM phosphoric acid and once in methanol before drying and scintillation counting.

c-Src = target: T2, c-Src (Homo sapiens, UniProt P12931); experiment: Protein kinase profiling (Kinase HotSpot); format: biochemical; details: single dose 1 μM
T2 construct: purchased Reaction Biology Corp. (Kinase HotSpot service)
Procedure: as §1

FLT3-ITD = FLT3-ITD (Homo sapiens, UniProt P36888); experiment: Protein kinase profiling (Kinase HotSpot); format: biochemical; details: single dose 1 μM
IGF1R = target: T3, IGF1R (Homo sapiens, UniProt P08069); experiment: Protein kinase profiling (Kinase HotSpot); format: biochemical; details: single dose 1 μM
T3 construct: purchased Reaction Biology Corp. (Kinase HotSpot service)
Procedure: (§2) Reaction Biology Corp. Kinase HotSpot SM service (www.reactionbiology.com) was used to determine IC50 values for all compounds and kinase profiles. The analysis protocol was as follows: In a final reaction volume of 25 μL, a peptide substrate, [[sequence]], 5 μM, ATP 10 μM, and FLT3(h) (5 to 10 mU) were incubated with 25 mM Tris pH 7.5, 0.02 mM EGTA, 0.66 mg/mL myelin basic protein, 10 mM Mg acetate and [γ-33P-ATP] (a concentration of approximately 500 cpm/pmol was required for specific activity). The reaction was initiated by adding the Mg-ATP mixture. After incubation at room temperature for 40 minutes, the reaction was stopped by adding 5 μL of a 3% phosphoric acid solution. Thereafter, 10 μL of the reactant was spotted on a P30 filter mat and washed three times for 5 minutes in 75 mM phosphoric acid and once in methanol before drying and scintillation counting.

c-Kit = c-Kit (Homo sapiens, UniProt P10721); experiment: Protein kinase profiling (Kinase HotSpot)
Procedure: as §2

c-MET = target: T4, c-MET (Homo sapiens, UniProt P08581); experiment: Protein kinase profiling (Kinase HotSpot); format: biochemical; details: single dose 1 μM
T4 construct: purchased Reaction Biology Corp. (Kinase HotSpot service)
Procedure: as §1

ERK1 = target: T5, ERK1 (Homo sapiens, UniProt P27361); experiment: Protein kinase profiling (Kinase HotSpot); format: biochemical
T5 construct: purchased Reaction Biology Corp. (Kinase HotSpot service)
Procedure: as §1

PKA = PKA (Homo sapiens, UniProt P17612); experiment: Protein kinase profiling (Kinase HotSpot)
Procedure: as §1

FYN = FYN (Homo sapiens, UniProt P06241); experiment: Protein kinase profiling (Kinase HotSpot)
Procedure: as §2

c-MER = target: T6, c-MER (Homo sapiens, UniProt Q12866); experiment: Protein kinase profiling (Kinase HotSpot); format: biochemical; details: single dose 1 μM
T6 construct: purchased Reaction Biology Corp. (Kinase HotSpot service)
Procedure: as §1

MEK1 = target: T7, MEK1 (Homo sapiens, UniProt Q02750); experiment: Protein kinase profiling (Kinase HotSpot); format: biochemical; details: single dose 1 μM
T7 construct: purchased Reaction Biology Corp. (Kinase HotSpot service)
Procedure: as §1

LYN = LYN (Homo sapiens, UniProt P07948); experiment: Protein kinase profiling (Kinase HotSpot)
Procedure: as §1

GSK3b = GSK3b (Homo sapiens, UniProt P49841); experiment: Protein kinase profiling (Kinase HotSpot)
Procedure: as §2

KDR/VEGFR2 = target: T8, KDR/VEGFR2 (Homo sapiens, UniProt P35968); experiment: Protein kinase profiling (Kinase HotSpot); format: biochemical; details: single dose 1 μM
T8 construct: purchased Reaction Biology Corp. (Kinase HotSpot service)
Procedure: as §1

EGFR = target: T9, EGFR (Homo sapiens, UniProt P00533); experiment: Protein kinase profiling (Kinase HotSpot); format: biochemical; details: single dose 1 μM
T9 construct: purchased Reaction Biology Corp. (Kinase HotSpot service)
Procedure: as §1

ROS/ROS1 = ROS/ROS1 (Homo sapiens, UniProt P08922); experiment: Protein kinase profiling (Kinase HotSpot)
Procedure: as §1

SYK = target: T10, SYK (Homo sapiens, UniProt P43405); experiment: Protein kinase profiling (Kinase HotSpot); format: biochemical; details: single dose 1 μM
T10 construct: purchased Reaction Biology Corp. (Kinase HotSpot service)
Procedure: as §1

BRAF (V599E) = target: T11, BRAF (V599E) (Homo sapiens, UniProt P15056, V600E); experiment: Protein kinase profiling (Kinase HotSpot); format: biochemical
T11 construct: purchased Reaction Biology Corp. (Kinase HotSpot service)
Procedure: as §2

LCK = target: T12, LCK (Homo sapiens, UniProt P06239); experiment: Protein kinase profiling (Kinase HotSpot); format: biochemical; details: single dose 1 μM
T12 construct: purchased Reaction Biology Corp. (Kinase HotSpot service)
Procedure: as §1

FLT3 (ITD)-NPOS = FLT3 (ITD)-NPOS (Homo sapiens, UniProt P36888); experiment: Kinase HotSpot radiometric kinase assay (Reaction Biology); format: biochemical; details: single dose 1 μM
Procedure: Reaction Biology Corp. Kinase HotSpot SM service (www.reactionbiology.com) was used to determine IC50 values for all compounds and kinase profiles. […] The reaction was initiated by adding the Mg-ATP mixture. After incubation at room temperature for 40 minutes, the reaction was stopped by adding 5 μL of a 3% phosphoric acid solution. Thereafter, 10 μL of the reactant was spotted on a P30 filter mat and washed three times for 5 minutes in 75 mM phosphoric acid and once in methanol before drying and scintillation counting.

BTK = target: T13, BTK (Homo sapiens, UniProt Q06187); experiment: Protein kinase profiling (Kinase HotSpot); format: biochemical; details: single dose 1 μM
T13 construct: purchased Reaction Biology Corp. (Kinase HotSpot service)
Procedure: as §2

TRKC = target: T14, TRKC (Homo sapiens, UniProt Q16288); experiment: Protein kinase profiling (Kinase HotSpot); format: biochemical
T14 construct: purchased Reaction Biology Corp. (Kinase HotSpot service)
Procedure: as §2

ALK = target: T15, ALK (Homo sapiens, UniProt Q9UM73); experiment: Protein kinase profiling (Kinase HotSpot); format: biochemical; details: single dose 1 μM
T15 construct: purchased Reaction Biology Corp. (Kinase HotSpot service)
Procedure: as §2

ABL1 = target: T16, ABL1 (Homo sapiens, UniProt P00519); experiment: Protein kinase profiling (Kinase HotSpot); format: biochemical
T16 construct: purchased Reaction Biology Corp. (Kinase HotSpot service)
Procedure: as §2

TYRO3/SKY = target: T17, TYRO3/SKY (Homo sapiens, UniProt Q06418); experiment: Protein kinase profiling (Kinase HotSpot); format: biochemical; details: single dose 1 μM
T17 construct: purchased Reaction Biology Corp. (Kinase HotSpot service)

RON/MST1R = target: T18, RON/MST1R (Homo sapiens, UniProt Q04912); experiment: Protein kinase profiling (Kinase HotSpot); format: biochemical; details: single dose 1 μM
T18 construct: purchased Reaction Biology Corp. (Kinase HotSpot service)
Procedure: as §1

[1] = target: T19, FLT3 (Y591_V592 ins VDFREYEYD) (Homo sapiens, UniProt P36888, INS591VDFREYEYD); experiment: Kinase HotSpot radiometric kinase assay (Reaction Biology); format: biochemical
T19 construct: purchased Reaction Biology Corp. (Kinase HotSpot service)
Procedure: as §2

most other kinases = experiment: Protein kinase profiling, 42 different kinases (summary); format: biochemical; details: 1 μM; kinases of the 42-kinase panel other than FLT3
JAK3 = JAK3 (Homo sapiens, UniProt P52333); experiment: Protein kinase profiling (Kinase HotSpot)
Procedure: as §1

AXL (R499C) = target: T20, AXL (R499C) (Homo sapiens, UniProt P30530, R499C); experiment: Protein kinase profiling (Kinase HotSpot); format: biochemical; details: single dose 1 μM
T20 construct: purchased Reaction Biology Corp. (Kinase HotSpot service)
Procedure: as §2

AKT1 = target: T21, AKT1 (Homo sapiens, UniProt P31749); experiment: Protein kinase profiling (Kinase HotSpot); format: biochemical; details: single dose 1 μM
T21 construct: purchased Reaction Biology Corp. (Kinase HotSpot service)
Procedure: as §2

Aurora A = Aurora A (Homo sapiens, UniProt O14965); experiment: Protein kinase profiling (Kinase HotSpot)
Procedure: as §2

CAMKK1 = target: T22, CAMKK1 (Homo sapiens, UniProt Q8N5S9); experiment: Protein kinase profiling (Kinase HotSpot); format: biochemical
T22 construct: purchased Reaction Biology Corp. (Kinase HotSpot service)
Procedure: as §2

FGFR3 = FGFR3 (Homo sapiens, UniProt P22607); experiment: Protein kinase profiling (Kinase HotSpot)
Procedure: as §2

FLT3 (R595_E596 ins EY) = target: T23, FLT3 (R595_E596 ins EY) (Homo sapiens, UniProt P36888, INS595EY); experiment: Kinase HotSpot radiometric kinase assay (Reaction Biology); format: biochemical
T23 construct: purchased Reaction Biology Corp. (Kinase HotSpot service)
Procedure: as §2

FMS = target: T24, FMS (Homo sapiens, UniProt P07333); experiment: Protein kinase profiling (Kinase HotSpot); format: biochemical; details: single dose 1 μM
T24 construct: purchased Reaction Biology Corp. (Kinase HotSpot service)
Procedure: as §2

AXL = target: T25, AXL (Homo sapiens, UniProt P30530); experiment: Protein kinase profiling (Kinase HotSpot); format: biochemical; details: single dose 1 μM
T25 construct: purchased Reaction Biology Corp. (Kinase HotSpot service)
Procedure: as §2

T23 sequence (P36888 with tags, fused parts or gaps INS595EY limits assumed): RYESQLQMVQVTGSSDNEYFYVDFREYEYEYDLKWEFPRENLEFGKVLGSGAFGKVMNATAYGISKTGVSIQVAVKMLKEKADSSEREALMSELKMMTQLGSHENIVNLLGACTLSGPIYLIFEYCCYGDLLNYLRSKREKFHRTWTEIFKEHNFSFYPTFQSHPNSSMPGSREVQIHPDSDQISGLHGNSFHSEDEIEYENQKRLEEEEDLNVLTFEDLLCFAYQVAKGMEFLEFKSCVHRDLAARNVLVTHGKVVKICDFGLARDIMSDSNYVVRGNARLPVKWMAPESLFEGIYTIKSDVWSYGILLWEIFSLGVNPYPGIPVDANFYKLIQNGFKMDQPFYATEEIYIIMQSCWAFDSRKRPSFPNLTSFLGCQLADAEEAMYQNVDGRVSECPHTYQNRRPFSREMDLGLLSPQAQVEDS
T16 sequence (P00519 whole entry): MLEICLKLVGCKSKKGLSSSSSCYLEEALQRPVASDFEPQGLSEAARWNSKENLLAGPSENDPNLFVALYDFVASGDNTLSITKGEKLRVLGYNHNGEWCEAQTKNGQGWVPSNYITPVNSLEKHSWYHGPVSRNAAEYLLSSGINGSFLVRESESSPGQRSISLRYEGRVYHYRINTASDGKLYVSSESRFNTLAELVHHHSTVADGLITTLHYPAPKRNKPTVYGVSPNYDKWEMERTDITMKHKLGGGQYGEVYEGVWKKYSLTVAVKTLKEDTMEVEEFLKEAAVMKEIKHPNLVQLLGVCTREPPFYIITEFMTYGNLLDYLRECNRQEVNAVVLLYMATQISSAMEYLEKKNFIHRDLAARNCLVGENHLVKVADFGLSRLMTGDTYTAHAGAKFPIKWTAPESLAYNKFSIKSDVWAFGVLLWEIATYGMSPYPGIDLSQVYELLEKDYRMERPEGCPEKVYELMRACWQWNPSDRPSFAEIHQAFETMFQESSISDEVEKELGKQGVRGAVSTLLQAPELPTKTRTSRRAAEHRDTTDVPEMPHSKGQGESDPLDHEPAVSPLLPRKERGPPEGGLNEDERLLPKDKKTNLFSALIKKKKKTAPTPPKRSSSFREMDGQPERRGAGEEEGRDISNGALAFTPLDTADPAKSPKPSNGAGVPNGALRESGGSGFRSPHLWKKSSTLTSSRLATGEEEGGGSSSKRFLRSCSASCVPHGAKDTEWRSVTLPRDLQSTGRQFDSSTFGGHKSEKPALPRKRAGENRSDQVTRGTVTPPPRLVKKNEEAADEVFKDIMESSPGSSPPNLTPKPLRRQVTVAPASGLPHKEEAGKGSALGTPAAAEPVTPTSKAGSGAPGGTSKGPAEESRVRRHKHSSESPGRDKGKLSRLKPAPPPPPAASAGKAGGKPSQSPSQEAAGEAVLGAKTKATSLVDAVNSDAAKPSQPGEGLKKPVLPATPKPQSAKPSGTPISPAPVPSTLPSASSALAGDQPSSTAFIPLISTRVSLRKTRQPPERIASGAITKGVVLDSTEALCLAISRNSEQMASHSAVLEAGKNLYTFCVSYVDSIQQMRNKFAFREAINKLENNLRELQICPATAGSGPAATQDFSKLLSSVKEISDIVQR
c-Kit, sequence (P10721 26-976): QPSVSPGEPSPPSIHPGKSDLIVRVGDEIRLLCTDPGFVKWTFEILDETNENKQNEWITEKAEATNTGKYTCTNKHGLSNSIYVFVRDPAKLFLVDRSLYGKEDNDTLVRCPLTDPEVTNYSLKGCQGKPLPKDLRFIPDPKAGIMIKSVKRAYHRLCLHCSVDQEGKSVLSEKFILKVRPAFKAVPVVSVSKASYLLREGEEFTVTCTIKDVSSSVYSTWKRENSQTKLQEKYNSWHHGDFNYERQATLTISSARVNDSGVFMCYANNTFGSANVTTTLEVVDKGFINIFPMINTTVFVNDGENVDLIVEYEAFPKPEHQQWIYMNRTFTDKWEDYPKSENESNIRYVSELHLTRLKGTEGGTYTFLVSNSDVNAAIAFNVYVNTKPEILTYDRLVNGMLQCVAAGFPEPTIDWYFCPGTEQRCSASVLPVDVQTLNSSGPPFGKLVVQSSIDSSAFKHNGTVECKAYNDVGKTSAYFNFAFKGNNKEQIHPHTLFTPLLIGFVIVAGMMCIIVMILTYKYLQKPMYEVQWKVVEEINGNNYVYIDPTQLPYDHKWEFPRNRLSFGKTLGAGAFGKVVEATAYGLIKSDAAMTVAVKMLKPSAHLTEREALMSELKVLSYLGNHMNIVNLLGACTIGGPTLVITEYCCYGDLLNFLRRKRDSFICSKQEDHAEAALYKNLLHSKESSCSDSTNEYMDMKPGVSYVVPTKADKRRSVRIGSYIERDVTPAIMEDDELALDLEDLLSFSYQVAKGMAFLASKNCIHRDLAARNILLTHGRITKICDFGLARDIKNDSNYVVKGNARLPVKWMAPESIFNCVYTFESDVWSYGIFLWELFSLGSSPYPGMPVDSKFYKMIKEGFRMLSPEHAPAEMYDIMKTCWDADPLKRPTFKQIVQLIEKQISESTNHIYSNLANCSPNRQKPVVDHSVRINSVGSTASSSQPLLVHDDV
T14 sequence (Q16288 32-839): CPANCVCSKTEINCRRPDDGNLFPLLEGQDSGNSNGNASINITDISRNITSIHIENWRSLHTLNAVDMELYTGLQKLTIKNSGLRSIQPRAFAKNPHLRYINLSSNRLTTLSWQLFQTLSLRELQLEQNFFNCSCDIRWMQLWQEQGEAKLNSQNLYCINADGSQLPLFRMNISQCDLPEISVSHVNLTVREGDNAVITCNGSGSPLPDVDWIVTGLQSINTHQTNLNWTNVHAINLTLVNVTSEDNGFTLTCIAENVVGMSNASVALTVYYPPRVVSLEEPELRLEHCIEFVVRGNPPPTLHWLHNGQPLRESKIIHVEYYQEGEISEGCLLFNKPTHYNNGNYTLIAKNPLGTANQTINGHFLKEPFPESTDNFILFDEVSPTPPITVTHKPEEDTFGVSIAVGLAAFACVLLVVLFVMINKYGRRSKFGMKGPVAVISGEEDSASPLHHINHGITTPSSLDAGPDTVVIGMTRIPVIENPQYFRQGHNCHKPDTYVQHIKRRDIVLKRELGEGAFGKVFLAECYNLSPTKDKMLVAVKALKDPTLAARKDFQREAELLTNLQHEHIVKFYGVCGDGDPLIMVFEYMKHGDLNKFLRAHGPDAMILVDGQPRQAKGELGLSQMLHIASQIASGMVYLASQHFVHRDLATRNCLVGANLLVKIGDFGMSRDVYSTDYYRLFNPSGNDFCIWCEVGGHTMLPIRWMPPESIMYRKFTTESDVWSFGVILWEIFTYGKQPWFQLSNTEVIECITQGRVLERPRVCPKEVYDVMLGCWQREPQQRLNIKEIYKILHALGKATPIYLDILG
T19 sequence (P36888 with tags, fused parts or gaps with the stated changes limits assumed): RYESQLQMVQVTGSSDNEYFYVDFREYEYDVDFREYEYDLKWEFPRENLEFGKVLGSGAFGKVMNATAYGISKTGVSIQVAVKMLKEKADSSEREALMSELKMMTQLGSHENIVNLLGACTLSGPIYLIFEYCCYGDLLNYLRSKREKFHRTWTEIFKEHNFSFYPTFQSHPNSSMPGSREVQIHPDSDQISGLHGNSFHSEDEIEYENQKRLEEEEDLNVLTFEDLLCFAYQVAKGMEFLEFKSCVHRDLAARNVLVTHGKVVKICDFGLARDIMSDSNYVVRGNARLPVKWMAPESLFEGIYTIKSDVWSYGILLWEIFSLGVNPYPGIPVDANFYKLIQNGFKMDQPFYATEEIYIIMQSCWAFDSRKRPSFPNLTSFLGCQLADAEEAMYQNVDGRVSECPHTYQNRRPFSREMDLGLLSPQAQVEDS
T22 sequence (Q8N5S9 whole entry): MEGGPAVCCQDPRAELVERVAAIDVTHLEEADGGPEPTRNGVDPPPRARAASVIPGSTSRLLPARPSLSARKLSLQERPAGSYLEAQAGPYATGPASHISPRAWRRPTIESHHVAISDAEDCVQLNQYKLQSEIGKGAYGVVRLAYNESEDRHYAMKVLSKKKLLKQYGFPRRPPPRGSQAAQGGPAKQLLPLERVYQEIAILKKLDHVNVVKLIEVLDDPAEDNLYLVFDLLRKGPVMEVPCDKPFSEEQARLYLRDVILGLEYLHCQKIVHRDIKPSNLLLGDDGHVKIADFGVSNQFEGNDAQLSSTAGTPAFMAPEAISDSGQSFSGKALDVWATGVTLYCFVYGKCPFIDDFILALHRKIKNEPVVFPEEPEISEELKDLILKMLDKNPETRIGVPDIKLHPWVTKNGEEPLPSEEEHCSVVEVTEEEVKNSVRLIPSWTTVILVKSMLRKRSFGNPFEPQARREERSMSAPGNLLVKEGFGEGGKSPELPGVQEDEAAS
T5 sequence (P27361 whole entry): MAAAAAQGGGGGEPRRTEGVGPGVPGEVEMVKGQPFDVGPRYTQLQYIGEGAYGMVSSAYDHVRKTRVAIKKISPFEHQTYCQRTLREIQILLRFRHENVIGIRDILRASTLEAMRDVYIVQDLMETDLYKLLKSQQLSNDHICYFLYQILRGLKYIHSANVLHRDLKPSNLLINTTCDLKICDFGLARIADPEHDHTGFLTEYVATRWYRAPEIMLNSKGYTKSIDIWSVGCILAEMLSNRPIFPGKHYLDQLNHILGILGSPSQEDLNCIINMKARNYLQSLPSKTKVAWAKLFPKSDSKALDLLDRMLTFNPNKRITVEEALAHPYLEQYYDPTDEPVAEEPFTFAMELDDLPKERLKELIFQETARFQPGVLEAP
T11 sequence (P15056 416-766 V600E limits assumed): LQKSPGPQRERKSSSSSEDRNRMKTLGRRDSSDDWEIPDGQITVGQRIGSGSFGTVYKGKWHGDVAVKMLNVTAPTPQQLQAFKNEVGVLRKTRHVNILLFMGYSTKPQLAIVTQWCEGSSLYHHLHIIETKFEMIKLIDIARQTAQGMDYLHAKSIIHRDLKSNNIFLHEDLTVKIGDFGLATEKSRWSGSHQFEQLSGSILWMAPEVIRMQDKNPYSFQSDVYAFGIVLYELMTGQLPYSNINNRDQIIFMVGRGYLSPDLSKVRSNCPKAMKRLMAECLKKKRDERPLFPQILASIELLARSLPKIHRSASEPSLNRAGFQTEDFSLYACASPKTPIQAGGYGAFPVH

## CCN1CCN(Cc2cc(C(=O)Nc3ccc4[nH]c(-c5ccc6cn[nH]c6c5)nc4c3)cc(C(F)(F)F)c2)CC1 [Compound 8r, N-(2-(1H-indazol-6-yl)-1H-benzo[di]imidazol-5-yl)-3-((4-ethylpiperazin-1-yl)methyl)-5-(trifluoromethyl)benzamide]
PLK1
  inhibition at 1 µM: 5.39%
c-Src
  inhibition at 1 µM: 1.94%
FLT3-ITD
  % Inhibition: 88.0%
IGF1R
  inhibition at 1 µM: 6.14%
c-Kit
  inhibition at 1 µM: 19%
c-Kit; read-out: IC50 c-Kit, Table 4
  pIC50: 5.34
c-MET
  inhibition at 1 µM: 6.53%
ERK1
  inhibition at 1 µM: 0%
PKA
  inhibition at 1 µM: 7.34%
FYN
  inhibition at 1 µM: 18%
c-MER
  inhibition at 1 µM: 7.3%
other
  melting point: 265 to 267 °C
MEK1
  inhibition at 1 µM: 5.69%
LYN
  inhibition at 1 µM: 7.4%
GSK3b
  inhibition at 1 µM: 7.25%
KDR/VEGFR2
  inhibition at 1 µM: 7.12%
EGFR
  inhibition at 1 µM: 0.274%
ROS/ROS1
  inhibition at 1 µM: 7.4%
SYK
  inhibition at 1 µM: 6.01%
BRAF (V599E)
  inhibition at 1 µM: 1%
LCK
  inhibition at 1 µM: 0%
FLT3 (ITD)-NPOS
  % Inhibition: 88.0%
BTK
  inhibition at 1 µM: 17.5%
TRKC; TRKC, single dose 1 μM
  inhibition at 1 µM: 48.3%
TRKC; Table 4
  pIC50: 5.82
ALK
  inhibition at 1 µM: 7.5%
ABL1; ABL1, single dose 1 μM
  inhibition at 1 µM: 18.4%
ABL1; Table 4
  pIC50: 5.51
TYRO3/SKY
  inhibition at 1 µM: 9.76%
RON/MST1R
  inhibition at 1 µM: 6.99%
[1]; FLT3 (Y591_V592ins[…]), single dose 1 μM
  inhibition at 1 µM: 90.9%
[1]; read-out: IC50 FLT3 (Y591_V592 ins VDFREYEYD)
  pIC50: 7.31
Most other kinases
  inhibitory activity for most other kinases: less than 20%
JAK3
  inhibition at 1 µM: 6.42%
AXL (R499C)
  inhibition at 1 µM: 6.64%
AKT1
  inhibition at 1 µM: 3.09%
Aurora A
  inhibition at 1 µM: 7.47%
CAMKK1; CAMKK1, single dose 1 μM
  inhibition at 1 µM: 32.5%
CAMKK1; Table 4
  pIC50: 6.40
FGFR3
  inhibition at 1 µM: 0%
FLT3 (R595_E596 ins EY)
  pIC50: 7.61
FLT3 (R595_E596 ins EY); FLT3 (R595_E596insEY), single dose 1 μM
  inhibition at 1 µM: 93.9%
FMS
  inhibition at 1 µM: 0.531%
AXL
  inhibition at 1 µM: 1.88%
